Measured values reported in US6362233B1, “Methoxy capped alkoxylated glycerin compounds” (Phoenix Research Corporation, priority 2001, dated 2002).

Test: Hydrolysis stability test: 10% test material in solution adjusted to pH 5 with lactic acid, placed at 50 C. for 5 days
Assay type: physicochemical
Conditions: pH adjusted to 5 with lactic acid
Description: The compounds of the present invention are stable to hydrolysis and provide emollient properties to skin. Typical of the stability of the compounds of the present invention compared to acetate salts is as follows:
pH adjusted to 5 with lactic acid.
10% test material added to get solution.
Placed at 50 C. for 5 days.

| Substance | Result (stability to hydrolysis) |
| --- | --- |
| Glycereth-7-Methoxy capped | Stable clear liquid |
| Glycereth-7-acetate | Acetic smell, hydrolyzed |
